Drawing on patent EP0774458A1, “Substituted benzodicarboxylic acid diguanidines, process for their preparation, and their use as medicament or diagnostic agent” (HOECHST AKTIENGESELLSCHAFT, priority 1995, dated 1997), this text covers IC50 for one compound.

The test has as its target T1, Na^+/H^+-Exchangers von Kaninchenerythrocyten (Oryctolagus cuniculus, UniProt P23791).
T1 construct: den Na^+-Influx in die Erythrocyten via Na^+/H^+-Austausch flammenphotometrisch bestimmen zu können; from tissue; host or cells: Erythrocytes in whole blood from the ear arteries of cholesterol-fed White New Zealand rabbits (Ivanovas)
Put plainly: Inhibition of the Na+/H+ exchanger of rabbit erythrocytes (amiloride-sensitive sodium influx, flame photometry). Type of test: cell-based, Weiße Neuseeland-Kaninchen. As to conditions: Inhibition des Na^+/H^+-Exchangers, hyperosmolares Salz-Sucrose-Medium, pH 7,4, 37°C. The source says:
Inhibition des Na^+/H^+-Exchangers von Kaninchenerythrocyten Weiße Neuseeland-Kaninchen (Ivanovas) erhielten eine Standard-Diät mit 2 % Cholesterin für sechs Wochen, um den Na^+/H^+-Austausch zu aktivieren und so den Na^+-Influx in die Erythrocyten via Na^+/H^+-Austausch flammenphotometrisch bestimmen zu können. Das Blut wurde den Ohrarterien entnommen und durch 25 IE Kalium-Heparin ungerinnbar gemacht. Ein Teil jeder Probe wurde zur Doppelbestimmung des Hämatokrits durch Zentrifugieren benutzt. Aliquots von jeweils 100 µl dienten zur Messung des Na^+-Ausgangsgehalts der Erythrocyten.
Um den Amilorid-sensitiven Natrium-Influx zu bestimmen, wurden 100 µl jeder Blutprobe in jeweils 5 ml eines hyperosmolaren Salz-Sucrose-Mediums (mmol/l: 140 NaCl, 3 KCl, 150 Sucrose, 0,1 Ouabain, 20 Tris-hydroxymethylaminomethan) bei pH 7,4 und 37°C inkubiert. Die Erythrocyten wurden danach dreimal mit eiskalter MgCl2-Ouabain-Lösung (mmol/l: 112 MgCl2, 0,1 Ouabain) gewaschen und in 2,0 ml destilliertem Wasser hämolysiert. Der intrazelluläre Natriumgehalt wurde flammenphotometrisch bestimmt.
Der Na^+-Nettoinflux wurde aus der Differenz zwischen Natrium-Ausgangswerten und dem Natriumgehalt der Erythrocyten nach Inkubation errechnet. Der Amilorid-hemmbare Natrium-Influx ergab sich aus der Differenz des Natriumgehalts der Erythrocyten nach Inkubation mit und ohne Amilorid 3 x 10-4 mol/l. […]

T1 sequence (P23791 whole entry): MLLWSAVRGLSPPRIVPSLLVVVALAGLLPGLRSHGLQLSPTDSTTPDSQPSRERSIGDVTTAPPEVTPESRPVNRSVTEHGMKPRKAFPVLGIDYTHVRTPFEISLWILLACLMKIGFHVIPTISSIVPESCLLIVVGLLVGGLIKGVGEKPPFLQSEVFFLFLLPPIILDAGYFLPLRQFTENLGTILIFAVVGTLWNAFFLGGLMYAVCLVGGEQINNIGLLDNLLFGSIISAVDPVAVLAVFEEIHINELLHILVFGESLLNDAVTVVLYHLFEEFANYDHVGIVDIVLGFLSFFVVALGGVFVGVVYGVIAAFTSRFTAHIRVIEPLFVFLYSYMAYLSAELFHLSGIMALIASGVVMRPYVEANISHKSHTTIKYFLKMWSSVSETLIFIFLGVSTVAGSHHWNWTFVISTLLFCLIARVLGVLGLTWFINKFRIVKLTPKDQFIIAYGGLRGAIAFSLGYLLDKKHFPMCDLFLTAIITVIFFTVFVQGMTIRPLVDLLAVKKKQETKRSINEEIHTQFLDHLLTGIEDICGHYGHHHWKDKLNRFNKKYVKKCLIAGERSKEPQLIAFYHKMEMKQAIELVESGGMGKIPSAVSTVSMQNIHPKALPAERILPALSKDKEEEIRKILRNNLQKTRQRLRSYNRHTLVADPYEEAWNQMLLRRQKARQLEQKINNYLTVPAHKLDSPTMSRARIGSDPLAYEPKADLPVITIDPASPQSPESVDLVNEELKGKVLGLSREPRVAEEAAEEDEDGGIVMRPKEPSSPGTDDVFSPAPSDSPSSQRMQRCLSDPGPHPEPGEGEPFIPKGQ

Compound `NC(N)=NC(=O)c1cc(C(=O)N=C(N)N)c(Cl)c(-c2ccccc2)c1` [Beispiel 1, 4-Chlor-5-phenyl-isophthalsäure-diguanidid] yielded an IC50 of 900 µM.
